Values quoted from earlier work, collected in patent publication US11648202B2, “Hydroxychloroquine sulfate formulations and methods for preparation and use thereof” (Research Triangle Institute, priority 2017, dated 2023).
Where a name gives a salt, the structure may show the parent alone.

CCN(CCO)CCCC(C)Nc1ccnc2cc(Cl)ccc12 (stereo not shown) [HCQS, hydroxychloroquine sulfate]
pKa of the amine: about 9.4
